Assay results as given in US6399654B1, “Biflavanoids and derivatives thereof as antiviral agents” (priority 1995, dated 2002).
In brackets after ≈: the same amount, converted by molar mass. Where two headings read alike, the source gives them in different places.

Tests used:
Influenza B Panama/45/90 [1] = assay: microbe, parasite or virus in culture; type: cell-based; settings: Influenza B virus, MDCK; Influenza B Panama/45/90; read-out: CPE Inhibition EC50
[2] = test system: Respiratory Syncytial Virus; assay: microbe, parasite or virus in culture; type: cell-based; settings: human respiratory syncytial virus, MA104; read-out: Neutral Red EC50
in vitro [3] = settings: dog, Neutral Red IC50 (cytotoxic)
Hepatitis B Virus (HBV) [4] = assay: HBV proteins and nucleic acids in 2.2.15 cells; type: cell-based; settings: Day 9, 2.2.15 cells; robustaflavone @10 μM
Procedure: Values of HBV proteins were determined by semi-quantitative EIA performed as previously described.^83 For the EIA analyses, test samples-were diluted (2- to 10-fold) so that the assay values produced were within the linear dynamic range of the EIA assays. Standard curves using serial dilutions of positive assay controls were included in each set of EIA analyses. HBV surface antigen ([…]), preSI protein, and HBc antigen ([…]) are released as extracellular products and were therefore analyzed in culture medium obtained 24 h following the last treatment dose of oligonucleotides or 2′, 3′-ddc. HBV core antigen (HBcAg) is an intracellular viral protein and was assayed in cell extracts produced by Triton-X-100 lysis.^83
Cultures for HBV RNA were maintained on 6-well plates, cultures for HBV virion DNA analyses were maintained on either 96- or 24-well plates, and cultures for all other HBV parameters were maintained on 24-well plates.
The concentrations of antiviral agents used in these studies approximates the EC50 values of the individual agents against intracellular HBV DNA replication intermediates (HBV RI). Cultures were treated with the indicated agents for 9 days using standard procedures. Values reported are the levels of the indicated HBV markers at the end of the treatment period (“DAY 9”) expressed as a percentage (±standard deviation (S.D.) of the average levels in the control cultures at the beginning of the treatment period (“DAY 0”). The method of expression permits an analysis of the variation of the HBV markers in the untreated (control) cultures over the course of the treatment period. HBV nucleic acid levels were measured by standard blot hydridization (dot, Southern, or Northern). HBV protein levels were measured by standard semi-quantitative EIA methods. Cultures for HBV RNA were maintained in 6-well culture plates. The levels of each of two major classes of HBV RNA transcripts are listed separately. Cultures for all other HBV markers were maintained in 24-well culture plates. For each treatment, a total of 4 separate cultures were used for the analysis of each HBV marker at both DAY 0 and DAY 9.
Determination of Mechanism of Action. Measurements of intracellular and extracellular HBV DNA, 3.6 kb and 2.1 kb mRNA fragments, and HBsAg, HBeAg and HBcAg protein markers were conducted as previously described (93).

Measles Virus [5] = assay: Measles virus neutral red dye uptake in BSC-1 cells; type: cell-based; settings: Measles morbillivirus, BSC-1
Influenza B Panama/45/90 [6] = assay: microbe, parasite or virus in culture; type: cell-based; settings: Influenza B virus, MDCK, read-out: Neutral Red EC50
in vitro [7] = settings: African green monkey
[8] = test system: Influenza A (H3N2) Beijing/32/92; assay: microbe, parasite or virus in culture; type: cell-based, influenza A virus; settings: Influenza A virus, MDCK; Influenza A (H3N2) Beijing/32/92; read-out: CPE Inhibition EC50
Hepatitis B Virus (HBV) [9] = assay: HBV replication intermediates (RI, intracellular HBV DNA) in 2.2.15 cells; type: cell-based
Procedure: Test compounds were added daily for a nine continuous day period; the culture medium was collected and stored for analysis of extracellular (virion) HBV DNA after 0, 3, 6, and 9 days of treatment. The treated cells were lysed 24 hours following day 9 of treatment for the analysis of intracellular HBV genomic forms. The overall levels of HBV DNA (both extracellular and intracellular DNA) and the relative rate of HBV replication (intracellular DNA) were analyzed quantitatively. The analysis was performed using blot hybridization techniques and [^32P]-labeled HBV-specific probes. The HBV DNA levels were measured by comparison to known amounts of HBV DNA standards applied to every nitrocellulose membrane (gel or slot blot). An AMBIS beta scanner, which measures the radioactive decay of the hybridized probes directly from the nitrocellulose membranes, was used for the quantitative analysis. Standard curves, generated by multiple analyses, were used to correlate CPM measurements made by the beta scanner with relative levels of target HBV DNA. The levels of HBV virion DNA released into the culture medium were analyzed by a slot blot hybridization procedure. HBV DNA levels were then compared to those at day 0 to determine the effect of the test compound. A known positive drug was evaluated in parallel with test compounds in each test.

Measles Virus [10] = assay: microbe, parasite or virus in culture; type: cell-based; settings: Measles morbillivirus, BSC-1; Measles Virus; read-out: CPI Inhibition EC50
HSV-2 = HSV-2 CPE inhibition in HFF cells; settings: for HSV-2 SI (CC50/EC50): HFF Cells
[11] = Cytotoxicity by neutral red dye uptake, BSC-1 cells; settings: African green monkey
Adenovirus Type 5 = assay: Adenovirus type 5 neutral red dye uptake in A549 cells; type: cell-based; settings: Human mastadenovirus C, A549; Adenovirus Type 5; read-out: Neutral Red EC50
in vitro [12] = settings: human
[13] = test system: Influenza A (H1N1) Texas/36/91; assay: microbe, parasite or virus in culture; type: cell-based, influenza A virus; settings: Influenza A virus, MDCK; Influenza A (H1N1) Texas/36/91; read-out: CPE Inhibition EC50
[14] = Cytotoxicity by neutral red dye uptake, A549 cells; settings: human
[15] = test system: Respiratory Syncytial Virus; assay: microbe, parasite or virus in culture; type: cell-based; settings: human respiratory syncytial virus, MA104; read-out: CPE Inhibition EC50
[16] = Cytotoxicity (CC50) in HFF cells in the herpes virus tests; settings: human
HFF Cells = assay: as above; settings: HFF Cells; for HSV-2 CPE Inhibition CC50: HSV-2 test
[17] = range-finding, CMC vehicle, 200 mg/kg/day i.p. twice daily for 5 days
[18] = range-finding, DMSO, 75 mg/kg/day, 0.05 mL injection volume
[19] = range-finding, DMSO, 250 mg/kg/day i.p. twice daily for 5 days, 0.1 mL
[20] = robustaflavone in DMSO, 37.5 mg/kg/day i.p. bid × 5
[21] = robustaflavone in DMSO, 75 mg/kg/day i.p. bid × 5

Q: Which EC50 (Influenza B Panama/45/90 [1]) does the source give for O=c1cc(-c2ccc(O)c(-c3c(O)cc4oc(-c5ccc(O)cc5)cc(=O)c4c3O)c2)oc2cc(O)cc(O)c12 [Robustaflavone (3), robustaflavone] here?
A: 0.23 µg/mL (≈ 0.427 µM)

Q: And the EC50 [2]?
A: ~56 µg/mL (≈ 104 µM)

Q: What about the IC50 (in vitro [3]; Influenza A (H1N1) test) of the same compound?
A: ~32 µg/mL (≈ 59.4 µM)

Q: What about the IC50 (in vitro [3]; Influenza A (H3N2) test) of the same compound?
A: ~100 µg/mL (≈ 186 µM)

Q: What about the IC50 (in vitro [3]; Influenza B test) of the same compound?
A: 100 µg/mL (≈ 186 µM)

Q: And the “Viral Antigens: HBeAg” value (Hepatitis B Virus (HBV) [4])?
A: 86 ± 6 % of Day 0 Control

Q: What about the “Viral Antigens: HBsAg” value (Hepatitis B Virus (HBV) [4]) of the same compound?
A: 97 ± 6 % of Day 0 Control

Q: And the “Viral Antigens: HbcAG” value (Hepatitis B Virus (HBV) [4])?
A: 138 ± 8 % of Day 0 Control

Q: What about the “Viral DNA: Extracellular DNA” value (Hepatitis B Virus (HBV) [4]) of the same compound?
A: 1 ± 1 % of Day 0 Control

Q: What about the “Viral DNA: Intracellular DNA” value (Hepatitis B Virus (HBV) [4]) of the same compound?
A: 5 ± 1 % of Day 0 Control

Q: And the “Viral mRNA: 3.6 kb and 2.1 kb mRNA (first column)” value (Hepatitis B Virus (HBV) [4])?
A: 93 ± 10 % of Day 0 Control

Q: What about the EC50 (Measles Virus [5]) of the same compound?
A: < 30 µg/mL

Q: And the EC50 (Influenza B Panama/45/90 [6])?
A: 0.22 µg/mL (≈ 0.409 µM)

Q: What about the IC50 (in vitro [7]) of the same compound?
A: < 14 µg/mL

Q: What about the EC50 [8] of the same compound?
A: 1.9 µg/mL (≈ 3.53 µM)

Q: And the EC50 (Hepatitis B Virus (HBV) [9]; Hepatitis B virus, read-out: EC50, HBV replication intermediates (RI) (intracellular DNA))?
A: 600 nM

Q: And the EC50 (Hepatitis B Virus (HBV) [9]; Hepatitis B virus, read-out: EC50, second value in parentheses)?
A: 600 nM

Q: What about the EC90 (Hepatitis B Virus (HBV) [9]; Hepatitis B virus, Table 2, value in parentheses, not explained, read-out: EC90, second value in parentheses) of the same compound?
A: 5600 nM

Q: What about the “SI (CC50/EC90), second value in parentheses” value (Hepatitis B Virus (HBV) [9]; Table 2, value in parentheses, not explained) of the same compound?
A: 60

Q: And the EC50 (Measles Virus [10])?
A: < 14 µg/mL

Q: What about the “HSV-2 SI (CC50/EC50)” value (HSV-2; listed as Robustaflavone(3)) of the same compound?
A: >11.8

Q: And the “HSV-2 SI (CC50/EC50)” value (HSV-2; listed as robustaflavone (3))?
A: > 11.8

Q: What about the EC50 (HSV-2; Human alphaherpesvirus 2, HFF, read-out: HSV-2 CPE Inhibition EC50) of the same compound?
A: 8.5 µg/mL (≈ 15.8 µM)

Q: What about the IC50 [11] of the same compound?
A: ~100 µg/mL (≈ 186 µM)

Q: What about the EC50 (Adenovirus Type 5) of the same compound?
A: > 100 µg/mL

Q: And the IC50 (in vitro [12])?
A: 56 µg/mL (≈ 104 µM)

Q: And the “tolerability in the antiviral experiment (in words)” value (CMC, 200 and 100 mg/kg/day)?
A: well tolerated

Q: What about the “toxicity control mice killed” value (DMSO, 37.5 mg/kg/day) of the same compound?
A: 2 of 3

Q: And the “toxicity in the antiviral experiment (in words)” value (DMSO, 75 mg/kg/day)?
A: lethally toxic

Q: What about the “toxicity in the antiviral experiment (in words)” value (DMSO, 75 and 37.5 mg/kg/day) of the same compound?
A: toxic to the mice

Q: What about the “Toxicity Controls Surv/Total” value (female, BALB/c, mouse, in vivo, ip, 200 mg/kg/day) of the same compound?
A: 3/3

Q: And the “Toxicity Controls Mean Weight Change” value (mouse, in vivo, ip, 200 mg/kg/day)?
A: 1.5 g

Q: What about the “Toxicity Controls Mean Weight Change” value (mouse, in vivo, ip, 1005 mg/kg/day) of the same compound?
A: 1.9 g

Q: What about the “tolerability (in words)” value [17] of the same compound?
A: reasonably well tolerated

Q: And the “weight lost in the 5-day treatment period” value [17]?
A: 0.1 g

Q: And the “survival (in words)” value [18]?
A: all mice survived

Q: And the “weight lost during the 5-day treatment period” value [18]?
A: 2 g

Q: What about the “tolerability (in words)” value [19] of the same compound?
A: lethally toxic

Q: And the weight loss [19]?
A: 6 g

Q: What about the “Toxicity Controls Surv/Total” value (robustaflavone in 0.4% CMC, 1005 mg/kg/day (so in the source) i.p. bid × 5) of the same compound?
A: 4/4

Q: What about the “Toxicity Controls Mean Weight Change” value [20] of the same compound?
A: -0.8 g

Q: What about the “Toxicity Controls Surv/Total” value [20] of the same compound?
A: 1/3

Q: What about the “Toxicity Controls Mean Weight Change” value [21] of the same compound?
A: -1.7 g

Q: What about the “Toxicity Controls Surv/Total” value [21] of the same compound?
A: 0/3

Q: And the EC50 [13]?
A: 1.9 µg/mL (≈ 3.53 µM)

Q: What about the IC50 [14] of the same compound?
A: 102 µg/mL (≈ 189 µM)

Q: And the EC50 [15]?
A: > 100 µg/mL

Q: What about the CC50 at 3 days [16] of the same compound?
A: > 100 µg/mL

Q: And the CC50 at 14 days [16]?
A: > 100 µg/mL

Q: What about the “HSV-1 CPE Inhibition CC50” value (HFF Cells; HSV-1 test) of the same compound?
A: >100 µg/mL

Q: And the “HSV-2 CPE Inhibition CC50” value (HFF Cells; listed as Robustaflavone(3))?
A: >100 µg/mL

Q: And the “HSV-2 CPE Inhibition CC50” value (HFF Cells; listed as robustaflavone (3))?
A: > 100 µg/mL
